# Source: patent US5559129A, “Indole derivatives” (priority 1995, dated 1996)
# Key:
# [1] = test system: plasma protein extravasation response within the dura mater; experiment: Inhibition of plasma protein extravasation within the dura mater following unilateral electrical trigeminal ganglion stimulation; assay type: in vivo, guinea pig; settings: for minimal effective dose: Cavia porcellus, iv, i.v. in guinea pigs, read-out: M.E.D. (minimally effective dose) for inhibition of plasma protein extravasation
# Description: The active compounds of the present invention are also evaluated via the inhibition of plasma protein extravasation response within the dura mater of guinea pigs following unilateral electrical trigeminal ganglion stimulation. The extent to which they mimic sumatriptan, in terms of both potency and efficacy, is determined in this assay. The procedure is performed on male Hartley guinea pigs (200-250 g, Charles River Laboratories, Wilmington, Mass., U.S.A.) as described in Markowitz et al., J. Neurosci., 7 (12), 4129-4136 (1987) and also in Lee, et al., Brain Reseach, 626, 303-305 (1993). The procedure briefly consists of placing pentobarbitone-anesthetized animals in a stereotaxic frame. ^125 I-BSA (bovine serum albumin) (50 μCi/kg^-1) is first injected into the femoral vein, followed 5 minutes later by drug or vehicle. Bipolar electrodes are then lowered into the trigeminal ganglia, and the right ganglion is stimulated for 5 minutes (1.2 mA, 5 Hz, 5 msec). The animal is then perfused with saline through the left cardiac ventricle and sacrificed, and the dura mater is dissected, weighed, and counted for radioactivity. Cpm/mg wet weight values are determined for the right vs left dura mater, and a ratio for the stimulated vs unstimulated sides is generated for each animal. Unpaired student's t-test is used to statistically compare these ratio values in respective groups treated with vehicle or drug.
# [2] = Solid-state and solubility properties of the α-form of the hydrobromide salt; assay type: physicochemical; settings: crystalline α-form of the hydrobromide salt
# [3] = test system: dog isolated saphenous vein strip; settings: antagonist of the vein strip contraction; cited from earlier work
# [4] = test system: carotid vascular resistance; settings: anaesthetized dog; cited from earlier work
compound,measurement,setting,value
"CNS(=O)(=O)Cc1ccc2[nH]cc(C[C@H]3CCCN3C)c2c1 [Example 5A, (R)-5-(Methylaminosulfonylmethyl)-3-(N-methylpyrrolidin-2-ylmethyl)-1H-indole]",minimal effective dose,[1],1e-06 µmol/kg
"Br.CN1CCC[C@@H]1Cc1c[nH]c2ccc(CCS(=O)(=O)c3ccccc3)cc12 [α-form, (R)-5-(2-phenylsulphonylethyl)-3-(N-methylpyrrolidin-2-ylmethyl)-1H-indole hydrobromide]",hygroscopicity,[2],non-hygroscopic
same,solid-state stability,[2],possesses solid-state stability
same,solubility and dissolution behavior,[2],acceptable solubility and dissolution behavior
CSc1ccc2c(c1)C(N1CCN(C)CC1)Cc1ccccc1S2 (centres unmarked) [methiothepin],block of the contractile effect by a known serotonin antagonist,[3],blocked
"CNS(=O)(=O)Cc1ccc2[nH]cc(C[C@H]3CCCN3)c2c1 [Example 6A, (R)-5-(Methylaminosulfonylmethyl)-3-(pyrrolidin-2-ylmethyl)-1H-indole]",minimal effective dose,[1],1e-07 µmol/kg
CNS(=O)(=O)Cc1ccc2[nH]cc(CCN(C)C)c2c1 [Sumatriptan],increase in carotid vascular resistance,[4],selective increase in carotid vascular resistance
"CN1C[C@H](CNC(=O)OCc2ccccc2)C[C@@H]2c3cccc4c3c(cn4C)C[C@H]21 [metergoline, reference compound]",block of the effect of the drugs by a known serotonin antagonist,[1]; antagonist of the inhibition of plasma protein extravasation,partially blocked
